Reference: US11236352B2, “Transgenic plants resistant to non-protein amino acids” (Yeda Research and Development Co. Ltd., priority 2011, dated 2022)

Tests used:
[1] = tested on: cyt-PheRS Arabidopsis thaliana lines; assay: m-Tyr resistance: root growth on MS medium with m-Tyr, cyt-PheRS line; assay type: in vivo; details: cyt-PheRS expressing line, 20 μM m-Tyr in growth media, 7 days
Experimental: (§1) Root growth of Wt (wild type), Cyt (transgenic plant containing cytosol localized bacterial PheRS) and Dual (transgenic plant containing plastids localized bacterial PheRS). Upper panels: samples grown on media containing 20 μM m-Tyrosine. Bottom panels: non-treated samples.
(§2) To assess effects of m-Tyr on Arabidopsis root growth, […] of m-Try was added to MS medium. Arabidopsis seeds were sterilized by shaking in 30% bleach. 0.3% Triton X-100 for 10 min, followed by three rinses with sterile distilled water. Petri dishes with seeds on agar medium were cold-stratified for 72 h at 4° C., and were subsequently placed vertically in green-house at 23° C., under 16:8 h light/dark cycle. After 7 days of growth, the root length of the plant was analyzed.
(§3) The bacterial PheRS genes described in the “Material and Methods” section hereinabove were expressed under the control of the constitutive 35S CaMV promoter. A transit peptide was appended to N-terminus of EcPheRS-α and EcPheRS-β subunits of the bacterial enzyme in order to direct them into the mitochondria and chloroplast of Arabidopsis thaliana. The second constructs pair including PheRS-α and PheRS-β lacked the transit peptides. […] Several independent transgenic lines were obtained, and their resistance to m-Tyr was analyzed. […]

[2] = tested on: wild-type Arabidopsis thaliana; assay: m-Tyr resistance: root growth on MS medium with m-Tyr, wild type; assay type: in vivo; details: wild type plants, 20 μM m-Tyr in growth media, 7 days
Experimental: as §1, §2, §3

bacterial PheRS [3] = molecular target: bacterial PheRS (Thermus thermophilus, UniProt Q5SGX1+Q5SGX2); details: FIG. 1; cited from earlier work
bacterial PheRS (Thermus thermophilus, UniProt Q5SGX1+Q5SGX2), sequence (Q5SGX1 whole entry): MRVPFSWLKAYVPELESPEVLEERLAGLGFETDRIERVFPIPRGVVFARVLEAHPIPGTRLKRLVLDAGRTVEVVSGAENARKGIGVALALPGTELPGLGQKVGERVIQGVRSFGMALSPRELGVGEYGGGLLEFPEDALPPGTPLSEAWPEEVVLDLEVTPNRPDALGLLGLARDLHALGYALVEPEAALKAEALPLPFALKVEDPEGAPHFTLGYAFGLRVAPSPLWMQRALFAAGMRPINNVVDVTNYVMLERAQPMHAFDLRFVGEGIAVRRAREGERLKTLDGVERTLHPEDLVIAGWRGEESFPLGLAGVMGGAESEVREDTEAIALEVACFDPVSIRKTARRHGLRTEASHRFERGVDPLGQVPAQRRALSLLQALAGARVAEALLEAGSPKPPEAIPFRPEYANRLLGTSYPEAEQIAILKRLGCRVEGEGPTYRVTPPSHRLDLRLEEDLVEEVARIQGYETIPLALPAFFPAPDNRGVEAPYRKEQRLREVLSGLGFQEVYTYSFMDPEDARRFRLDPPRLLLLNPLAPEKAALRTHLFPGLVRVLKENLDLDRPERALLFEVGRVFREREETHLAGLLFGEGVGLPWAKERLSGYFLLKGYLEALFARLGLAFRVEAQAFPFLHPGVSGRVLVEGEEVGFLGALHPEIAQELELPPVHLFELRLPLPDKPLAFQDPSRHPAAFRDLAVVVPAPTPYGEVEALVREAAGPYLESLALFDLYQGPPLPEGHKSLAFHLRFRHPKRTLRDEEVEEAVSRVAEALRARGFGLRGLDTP
bacterial PheRS (Thermus thermophilus, UniProt Q5SGX1+Q5SGX2), sequence (Q5SGX2 whole entry): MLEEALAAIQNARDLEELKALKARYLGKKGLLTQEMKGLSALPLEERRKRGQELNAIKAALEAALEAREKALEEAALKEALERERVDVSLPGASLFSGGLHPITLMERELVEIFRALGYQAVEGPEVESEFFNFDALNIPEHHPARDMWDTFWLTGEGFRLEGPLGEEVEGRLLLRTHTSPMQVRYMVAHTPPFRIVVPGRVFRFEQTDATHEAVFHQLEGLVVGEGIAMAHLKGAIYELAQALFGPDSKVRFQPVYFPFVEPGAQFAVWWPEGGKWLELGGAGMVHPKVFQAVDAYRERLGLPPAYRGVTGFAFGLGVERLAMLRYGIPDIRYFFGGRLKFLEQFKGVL

Arabidopsis thaliana [4] = details: added to an agar medium; read-out: concentration that inhibits root growth by 50%; cited from earlier work
bacterial PheRS [5] = details: incubated with bacterial PheRS; cited from earlier work
Arabidopsis thaliana [6] = details: in vivo; cited from earlier work
[7] = tested on: mtp-PheRS Arabidopsis thaliana lines; assay: m-Tyr resistance: root growth on MS medium with m-Tyr, mtp-PheRS line; assay type: in vivo; details: lines containing mtp-PheRS, 20 μM m-Tyr in growth media, 7 days
Experimental: as §1, §2, §3

HsmtPheRS = molecular target: T1, HsmtPheRS (Homo sapiens, UniProt O95363); details: mitochondrial enzyme, no editing domain; cited from earlier work
T1 sequence (O95363 1-451): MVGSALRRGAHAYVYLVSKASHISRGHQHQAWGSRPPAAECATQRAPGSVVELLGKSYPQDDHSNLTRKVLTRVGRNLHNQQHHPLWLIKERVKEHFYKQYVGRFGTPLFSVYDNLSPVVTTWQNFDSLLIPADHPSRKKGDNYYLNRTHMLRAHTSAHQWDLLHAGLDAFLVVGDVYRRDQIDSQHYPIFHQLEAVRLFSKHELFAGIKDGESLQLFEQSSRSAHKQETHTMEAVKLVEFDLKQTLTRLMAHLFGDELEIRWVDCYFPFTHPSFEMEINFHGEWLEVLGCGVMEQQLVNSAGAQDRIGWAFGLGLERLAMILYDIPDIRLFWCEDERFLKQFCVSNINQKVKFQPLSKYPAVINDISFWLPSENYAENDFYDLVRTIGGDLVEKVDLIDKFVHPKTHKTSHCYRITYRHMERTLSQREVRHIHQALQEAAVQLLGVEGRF

SMILES: N[C@@H](Cc1cccc(O)c1)C(=O)O [m-Tyr, meta-tyrosine]
- root development [1]: less developed compared to the line containing mtp-PheRS
- root development [2]: didn't develop
- mischarging of tRNA^Phe with m-Tyr (bacterial PheRS [3]): no mischarging
- IC50 (Arabidopsis thaliana [4]): 2000 nM
- deacylation of m-Tyr from preloaded m-Tyr-tRNA^Phe (bacterial PheRS [5]): deacylated from the tRNA
- concentration that completely prevents seed germination (Arabidopsis thaliana [6]): 50 µM
- root development [7]: developed up to the half of the length of the non-treated plants
- synthesis of m-Tyr-tRNA^Phe (HsmtPheRS): could stably synthesize m-Tyr-tRNA^Phe
